This passage reports IC50 results from ChEMBL document CHEMBL1201862, “PubChem BioAssay data set” (2004).

The IC50 is the concentration at which inhibition is half-maximal.

The assay concerns the target Envelope glycoprotein gp160 (Human immunodeficiency virus 1, UniProt Q6QLK5). The assay can be described thus: cell-free HIV fusion peptide-binding blockers – biochemical, uHTS, fluorescence dequenching, […] (AID 1986).

The source made the active and inactive calls. No stated cut-off is given here; in the data, actives have a measured IC50 and inactives only a lower limit.

Sequence of Envelope glycoprotein gp160 (Q6QLK5 whole entry, the tested form may be a part): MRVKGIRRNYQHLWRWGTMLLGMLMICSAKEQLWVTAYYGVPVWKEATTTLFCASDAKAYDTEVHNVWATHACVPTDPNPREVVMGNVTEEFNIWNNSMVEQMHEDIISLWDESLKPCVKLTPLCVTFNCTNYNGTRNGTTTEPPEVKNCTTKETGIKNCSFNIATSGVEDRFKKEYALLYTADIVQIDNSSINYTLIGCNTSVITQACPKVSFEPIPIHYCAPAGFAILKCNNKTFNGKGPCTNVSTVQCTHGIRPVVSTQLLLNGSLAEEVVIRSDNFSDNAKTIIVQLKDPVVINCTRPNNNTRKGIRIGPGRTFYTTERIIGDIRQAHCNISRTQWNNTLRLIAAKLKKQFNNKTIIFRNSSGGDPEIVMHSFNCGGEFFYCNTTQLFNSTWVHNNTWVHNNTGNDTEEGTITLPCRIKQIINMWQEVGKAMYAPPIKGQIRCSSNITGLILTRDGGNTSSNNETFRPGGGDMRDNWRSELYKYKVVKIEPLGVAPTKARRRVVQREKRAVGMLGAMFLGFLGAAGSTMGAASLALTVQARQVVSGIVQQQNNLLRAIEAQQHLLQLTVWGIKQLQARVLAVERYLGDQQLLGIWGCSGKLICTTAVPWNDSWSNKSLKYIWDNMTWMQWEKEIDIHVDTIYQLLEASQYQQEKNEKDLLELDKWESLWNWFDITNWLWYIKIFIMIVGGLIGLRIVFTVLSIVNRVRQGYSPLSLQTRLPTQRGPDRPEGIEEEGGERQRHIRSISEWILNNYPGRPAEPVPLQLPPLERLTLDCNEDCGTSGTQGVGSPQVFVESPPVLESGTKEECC

`O=C1Nc2ccc(Br)cc2/C1=C1/SC(=S)N(NS(=O)(=O)c2ccccc2)C1=O`: the IC50 is 23.9 µM (active).
